From ChEMBL document CHEMBL3886378, “Heterocyclic sulfone mGluR4 allosteric potentiators, compositions, and methods of treating neurological dysfunction” (2015)

What follows are compounds tested against Metabotropic glutamate receptor 4 (Homo sapiens, UniProt Q14833) (assay: Receptor Activity Assay: The disclosed compounds and compositions can be evaluated for their ability to act as a potentiator of metabotropic glutamate receptor activity, in particular mGluR4 activity, by any suitable known methodology known in the art. For example, Chinese Hamster Ovary (CHO) cells transfected with human mGluR4 or HEK cells co-transfected with rat mGluR4 and the G-protein regulated Inwardly Rectifying Potassium channel (GIRK) were plated in clear bottom assay plates for assay in a Hamamatsu FDSS Fluorometric Plate Reader. The cells were loaded with either a Ca2+-sensitive fluorescent dye or the thallium responsive dye and the plates were washed and placed into a suitable kinetic plate reader. For human mGluR4 assays, a fluorescence baseline was established for 3-5 seconds, the disclosed compounds were then added to the cells, and the response in cells was measured.).
Sequence of Metabotropic glutamate receptor 4 (Q14833 whole entry): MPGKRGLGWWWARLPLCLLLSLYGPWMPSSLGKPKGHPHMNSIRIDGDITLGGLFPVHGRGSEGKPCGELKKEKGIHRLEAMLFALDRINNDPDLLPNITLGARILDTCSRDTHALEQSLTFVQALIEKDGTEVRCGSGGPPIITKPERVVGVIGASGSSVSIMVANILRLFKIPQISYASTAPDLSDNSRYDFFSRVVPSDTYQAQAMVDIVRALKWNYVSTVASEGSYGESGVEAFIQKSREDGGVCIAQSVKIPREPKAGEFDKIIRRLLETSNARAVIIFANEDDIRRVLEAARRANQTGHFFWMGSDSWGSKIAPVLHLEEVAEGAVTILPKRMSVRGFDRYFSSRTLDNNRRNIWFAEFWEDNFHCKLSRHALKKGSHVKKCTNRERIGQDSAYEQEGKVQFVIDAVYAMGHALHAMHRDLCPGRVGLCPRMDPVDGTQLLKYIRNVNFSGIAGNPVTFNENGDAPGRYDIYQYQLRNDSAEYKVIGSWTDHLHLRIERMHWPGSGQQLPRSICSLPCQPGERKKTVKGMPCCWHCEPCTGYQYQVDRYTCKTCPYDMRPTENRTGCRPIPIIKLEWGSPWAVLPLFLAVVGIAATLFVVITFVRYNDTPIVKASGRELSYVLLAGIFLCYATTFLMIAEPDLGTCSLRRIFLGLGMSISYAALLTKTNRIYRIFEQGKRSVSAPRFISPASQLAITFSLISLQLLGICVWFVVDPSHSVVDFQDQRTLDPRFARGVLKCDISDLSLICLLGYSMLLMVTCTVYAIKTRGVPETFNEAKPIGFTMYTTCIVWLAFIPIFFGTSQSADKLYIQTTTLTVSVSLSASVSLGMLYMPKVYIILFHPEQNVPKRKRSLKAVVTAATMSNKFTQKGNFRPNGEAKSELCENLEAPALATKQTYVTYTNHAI
Format: functional, cell-based, HEK293
With Cc1nc(NC(=O)c2ccccn2)sc1S(=O)(=O)Cc1cccc(Cl)c1 the EC50 was 1390 nM. Cc1nc(NC(=O)c2ccccn2)sc1S(=O)(=O)Cc1ccc(F)c(F)c1 showed an EC50 of 937 nM. With O=C(Nc1nc(C(F)(F)F)c(S(=O)(=O)Cc2ccccc2F)s1)c1ccccn1 the EC50 was 401 nM. Cc1nc(NC(=O)c2ccccn2)sc1S(=O)(=O)Cc1ccc(F)cc1 was tested, and the EC50 was 1510 nM. O=C(Nc1nc(C2CC2)c(S(=O)(=O)Cc2c(F)cccc2F)s1)c1ccccn1 was tested, and the EC50 was greater than 10000 nM. For CCc1nc(NC(=O)c2ccccn2)sc1S(=O)(=O)Cc1c(F)cccc1F, the EC50 was 139 nM. O=C(Nc1nc(C2CC2)c(S(=O)(=O)Cc2ccc(Cl)cc2Cl)s1)c1ccccn1 gave an EC50 greater than 10000 nM. O=C(Nc1ncc(S(=O)(=O)Cc2ccc(Cl)cc2F)s1)c1ccccn1 gave an EC50 of 44.1 nM. In the case of Cc1nc(NC(=O)c2ccccn2)sc1S(=O)(=O)Cc1ccccc1F, the EC50 is reported as 1330 nM. Cc1nc(NC(=O)c2ccccn2)sc1S(=O)(=O)Cc1ccc(Cl)cc1 gave an EC50 of 486 nM. With CCc1nc(NC(=O)c2ccccn2)sc1S(=O)(=O)Cc1ccc(C)cc1 the EC50 was 450 nM. With O=C(Nc1nc(CF)c(S(=O)(=O)Cc2c(F)cccc2F)s1)c1ccccn1 the EC50 was 463 nM. Work on CCc1nc(NC(=O)c2ccccn2)sc1S(=O)(=O)Cc1c(C)cc(C)cc1C yielded an EC50 of 354 nM. Work on O=C(Nc1ncc(SCc2ccc(Cl)cc2Cl)s1)c1ccccn1 yielded an EC50 of 5000 nM. Cc1nc(NC(=O)c2ccccn2)sc1S(=O)(=O)Cc1cccc(Cl)c1F was tested, and the EC50 was 535 nM. O=C(Nc1nc(C(F)(F)F)c(S(=O)(=O)Cc2ccc(Cl)cc2Cl)s1)c1ccccn1 showed an EC50 of 497 nM. With O=C(Nc1nc(C(F)(F)F)c(S(=O)(=O)Cc2ccc(F)cc2F)s1)c1ccccn1 the EC50 was 1730 nM. For Cc1nc(NC(=O)c2ccccn2)sc1S(=O)(=O)C(C)c1ccccc1Cl (stereo not given), the EC50 was 3230 nM. Work on CCc1nc(NC(=O)c2ccccn2)sc1S(=O)(=O)Cc1cccc(Cl)c1F yielded an EC50 of 488 nM. For Cc1nc(NC(=O)c2ccccn2)sc1S(=O)(=O)Cc1ccccc1Cl, the EC50 was 504 nM. Compound O=C(Nc1ncc(S(=O)(=O)Cc2ccccc2F)s1)c1ccccn1 has an EC50 of 398 nM. For CCc1nc(NC(=O)c2ccccn2)sc1S(=O)(=O)Cc1ccc(Cl)cc1F, the EC50 was 294 nM. O=C(Nc1nnc(S(=O)(=O)Cc2ccccc2)s1)c1ccccn1 showed an EC50 greater than 10000 nM. Cc1nc(NC(=O)c2ccccn2)sc1S(=O)(=O)Cc1cc(F)c(F)cc1F was tested, and the EC50 was 322 nM. CCc1nc(NC(=O)c2ccccn2)sc1S(=O)(=O)Cc1c(Cl)cccc1Cl was tested, and the EC50 was 88 nM. Cc1nc(NC(=O)c2ccccn2)sc1S(=O)(=O)Cc1ccc(Cl)cc1Cl showed an EC50 of 289 nM. Compound Cc1nc(NC(=O)c2ccccn2)sc1S(=O)(=O)Cc1ccc(C(C)C)cc1 has an EC50 of 1050 nM. In the case of Cc1nc(NC(=O)c2ccccn2)sc1S(=O)(=O)Cc1cc(F)ccc1F, the EC50 is reported as 1070 nM. CC(C)c1nc(NC(=O)c2ccccn2)sc1S(=O)(=O)Cc1ccc(F)cc1F was tested, and the EC50 was 3110 nM. Work on O=C(Nc1ncc(S(=O)(=O)Cc2ccccc2Cl)s1)c1ccccn1 yielded an EC50 greater than 10000 nM. With CCc1nc(NC(=O)c2ccccn2)sc1S(=O)(=O)Cc1c(F)cccc1Cl the EC50 was 141 nM. Cc1ccccc1CS(=O)(=O)c1sc(NC(=O)c2ccccn2)nc1C showed an EC50 of 709 nM. Work on CC(C)c1nc(NC(=O)c2ccccn2)sc1S(=O)(=O)Cc1ccc(Cl)cc1F yielded an EC50 of 2930 nM. Compound CC(C)c1nc(NC(=O)c2ccccn2)sc1S(=O)(=O)Cc1c(F)cccc1F has an EC50 of 316 nM. For O=C(Nc1nc(C2CC2)c(S(=O)(=O)Cc2ccccc2Cl)s1)c1ccccn1, the EC50 was 2980 nM. O=C(Nc1nc(C(F)(F)F)c(S(=O)(=O)Cc2ccccc2Cl)s1)c1ccccn1 gave an EC50 of 271 nM. O=C(Nc1nc(C2CC2)c(S(=O)(=O)Cc2ccccc2F)s1)c1ccccn1 gave an EC50 of 249 nM. Cc1nc(NC(=O)c2ccccn2)sc1S(=O)(=O)C(C)c1ccccc1F (stereo not given) gave an EC50 of 4780 nM. For CC(C)c1nc(NC(=O)c2ccccn2)sc1S(=O)(=O)Cc1ccc(Cl)cc1Cl, the EC50 was 3300 nM. Cc1ccc(S(=O)(=O)c2sc(NC(=O)c3ccccn3)nc2C)cc1 showed an EC50 of 1610 nM. Cc1nc(NC(=O)c2ccccn2)sc1S(=O)(=O)Cc1c(F)cccc1Cl gave an EC50 of 192 nM. Compound CC(C)c1nc(NC(=O)c2ccccn2)sc1S(=O)(=O)C(C)c1ccccc1Cl (stereo not given) has an EC50 of 3750 nM. In the case of O=C(Nc1nc(CO)c(S(=O)(=O)Cc2c(F)cccc2F)s1)c1ccccn1, the EC50 is reported as 8810 nM. In the case of CC(C)c1nc(NC(=O)c2ccccn2)sc1S(=O)(=O)Cc1ccccc1Cl, the EC50 is reported as 1950 nM. Compound O=C(Nc1ncc(SCc2ccc(Cl)cc2F)s1)c1ccccn1 has an EC50 of 8240 nM. In the case of O=C(Nc1nc(C(F)(F)F)c(S(=O)(=O)Cc2ccc(Cl)cc2F)s1)c1ccccn1, the EC50 is reported as 181 nM. Compound O=C(Nc1ncc(S(=O)(=O)Cc2ccc(Cl)cc2Cl)s1)c1ccccn1 has an EC50 of 49.9 nM. With Cc1nc(NC(=O)c2ccccn2)sc1S(=O)(=O)Cc1ccccc1C(F)(F)F the EC50 was 1020 nM. Cc1nc(NC(=O)c2ccccn2)sc1S(=O)(=O)Cc1ccc(F)c(Cl)c1 was tested, and the EC50 was 2350 nM. Cc1nc(NC(=O)c2ccccn2)sc1S(=O)(=O)Cc1ccc(F)cc1F showed an EC50 of 1010 nM. Compound CC(C)c1nc(NC(=O)c2ccccn2)sc1S(=O)(=O)Cc1ccccc1F has an EC50 of 3660 nM. For O=C(Nc1nc(C2CC2)c(S(=O)(=O)Cc2ccc(F)cc2F)s1)c1ccccn1, the EC50 was 1050 nM. Work on O=C(Nc1nc(C(F)F)c(S(=O)(=O)Cc2c(F)cccc2F)s1)c1ccccn1 yielded an EC50 of 683 nM. In the case of O=C(Nc1ncc(S(=O)(=O)Cc2c(F)cccc2F)s1)c1ccccn1, the EC50 is reported as 170 nM. Work on Cc1nc(NC(=O)c2ccccn2)sc1S(=O)(=O)Cc1cccc(C(F)(F)F)c1 yielded an EC50 of 2460 nM. Compound Cc1cccc(S(=O)(=O)c2sc(NC(=O)c3ccccn3)nc2C)c1 has an EC50 of 6970 nM. With Cc1nc(NC(=O)c2ccccn2)sc1S(=O)(=O)Cc1c(F)cccc1F the EC50 was 312 nM. Cc1nc(NC(=O)c2ccccn2)sc1S(=O)(=O)Cc1ccc(Cl)cc1F gave an EC50 of 255 nM. For COc1ccc(CS(=O)(=O)c2sc(NC(=O)c3ccccn3)nc2C)cc1, the EC50 was 1960 nM. CCc1nc(NC(=O)c2ccccn2)sc1S(=O)(=O)Cc1ccc(Cl)cc1Cl showed an EC50 of 939 nM. In the case of CC(C)c1nc(NC(=O)c2ccccn2)sc1S(=O)(=O)C(C)c1ccccc1F (stereo not given), the EC50 is reported as 9570 nM. With O=C(Nc1nc(C2CC2)c(S(=O)(=O)Cc2ccc(Cl)cc2F)s1)c1ccccn1 the EC50 was 1290 nM. O=C(Nc1nc(C(F)(F)F)c(S(=O)(=O)Cc2c(F)cccc2F)s1)c1ccccn1 gave an EC50 of 1060 nM. In the case of Cc1ccc(CS(=O)(=O)c2sc(NC(=O)c3ccccn3)nc2C)cc1, the EC50 is reported as 445 nM. With Cc1nc(NC(=O)c2ccccn2)sc1S(=O)(=O)Cc1c(Cl)cccc1Cl the EC50 was 117 nM.
